US20250295748A1 (priority 2020, published 2025)
*1 amine or outer side, *2 acyl side, *3 side chain or, on linkers, in order; H or OH if unused. Where a SMILES comes first, the peptide text is derived from it. Bridges are numbered along the chain shown (N, C = ends). [ ]: non-standard residue; d: D form. X1 = CC(C)CCCCCCCCC[C@H](CC(=O)[*:1])O[*:2]

Target: Bovine Serum Albumin (BSA) (Bos taurus, UniProt P02769)
Assay: Thermal shift assay (SYPRO-Orange) of BSA
Type: biochemical
Details: FIG. 8, BSA 0.1 mg/ml, 1×PBS

Bovine Serum Albumin (BSA), sequence (P02769 25-607): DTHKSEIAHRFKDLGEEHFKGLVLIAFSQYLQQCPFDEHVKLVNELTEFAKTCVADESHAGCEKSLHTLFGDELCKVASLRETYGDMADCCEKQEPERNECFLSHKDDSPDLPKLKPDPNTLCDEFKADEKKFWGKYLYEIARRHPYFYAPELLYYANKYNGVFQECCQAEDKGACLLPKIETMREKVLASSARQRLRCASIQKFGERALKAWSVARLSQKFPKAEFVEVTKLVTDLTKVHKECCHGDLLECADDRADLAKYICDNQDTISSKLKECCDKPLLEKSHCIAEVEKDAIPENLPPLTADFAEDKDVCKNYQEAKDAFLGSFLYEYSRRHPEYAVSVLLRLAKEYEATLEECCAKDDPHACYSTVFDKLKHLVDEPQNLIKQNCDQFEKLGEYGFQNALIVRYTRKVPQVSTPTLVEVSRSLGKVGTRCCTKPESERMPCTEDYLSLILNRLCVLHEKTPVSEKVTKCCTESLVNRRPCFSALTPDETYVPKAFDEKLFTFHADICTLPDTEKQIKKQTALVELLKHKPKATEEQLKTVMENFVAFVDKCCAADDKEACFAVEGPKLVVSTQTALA

CC(C)CCCCCCCCC[C@@H]1CC(=O)N[C@@H](CCC(=O)O)C(=O)N[C@@H](CC(C)C)C(=O)N[C@H](CC(C)C)C(=O)N[C@@H](C(C)C)C(=O)N[C@@H](CC(=O)O)C(=O)N[C@H](CC(C)C)C(=O)N[C@@H](CC(C)C)C(=O)O1 [Surfactin] (EL[dL]VD[dL]L; linker N-C via X1)
denaturing activity against BSA (decrease in Tm vs concentration): potent at denaturing BSA but less than 277-SEC
